Laboratory results published in US10407447B2, “Pantothenate derivatives for the treatment of neurological disorders” (Retrophin, Inc., priority 2013, dated 2019).

Columns and labels:
[1] = tested on: PANK2 silenced cells (IMR32 Human Neuroblastoma Cells); assay: Neuroblastoma cell assay: CoASH by LC-MS/MS in PANK2 silenced cells; format: cell-based; settings: 50 μM, treatment repeated after 24 hours, further 24 hours; free CoASH by LC-MS/MS
Protocol: The compounds described herein may be tested in PANK2 silenced cells (IMR32 Human Neuroblastoma Cells). The amount of CoASH following administration of the compounds is measured by LC-MS/MS.
Human neuroblastoma IMR32 cells (ATCC) were cultured in MEM (Invitrogen) supplemented with 10% fetal bovine serum, 2 mM glutamine, 1% penicillin-streptomycin, 1 mM sodium pyruvate, 1 mM non essential aminoacids and 1.5 g/l sodium bicarbonate.
Human Emryonic Kidney HEK-293T cells (ATCC) were cultured in DMEM supplemented with 10% fetal bovine serum, 1 mM glutamine, 1% penicillin-streptomycin.
The cells were maintained at 37° C. under 5% CO2.
Establishment of a PANK2−/− Cell Model
For lentiviral shRNA expression, Human Emryonic Kidney HEK-293T cells (ATCC) were transfected with the appropriate pGFP-Lenti-shRNA constructs and packaging plasmids according to manufacturer's protocol (Origene Technologies, Inc.). 4 different gene-specific shRNA expression vectors designed against multiple splice variants of PANK2 (Gene ID 80025) were used for transfection. A non-silencing shRNA construct (scrambled shRNA) and an empty vector expressing GFP alone were used as negative controls. The GFP tag subcloned into the lentiviral vectors was used to monitor the transfection efficiency.
IMR32 cells were plated on […] dishes 48 hrs before transduction with lentiviral particles.
Three days after transduction medium was removed and replaced with fresh medium containing […] puromycin. Medium was replaced every 48 hrs. Levels of PANK2 expression on selected clones was assessed by Western Blot analysis.
Cell-Based Assay on PANK2−/− Cells
Cells were plated on 6-well culture plates. After 72 hours, compounds were diluted in DMSO and added to the culture medium such that the final solvent concentration was 0.1% (v/v). […] Before analysis of Coenzyme A levels, cells were harvested, counted and collected in a 15 ml falcon tube and centrifuged at 200×g for 5 min at 4° C. […]
Results are expressed as fold increase in CoA levels (LCMS quantification of free CoASH as described in above).

[2] = tested on: Pank1−/− mice; assay: In vivo testing: liver Coenzyme A levels in Pank1−/− mice; design: species or system mouse; settings: liver CoA in treated Pank1−/− mice as percentage of untreated Pank1−/− mice; intraperitoneal 1.2 μmoles/g body weight once daily for 5 days, fasted overnight
Protocol: Compounds of the invention were tested for efficacy in Pank1^−/− mice (strain 129SvJ×C57BL/6J background), which were compared with age-matched Pank1^+/+ (strain 129SvJ×C57BL/6J) littermates, ages 8-12 weeks. Each mouse was identified with a coded ear tag and weighed on the first day of testing. Each compound was administered to 4-5 mice by intraperitoneal injection at a dose of 1.2 μmoles/g body weight in 5 μL dimethylsulfoxide once daily for 5 days, and mice were then fasted overnight, weighed, and euthanized. Untreated mice received 5 μL dimethylsulfoxide once daily for 5 days and then were fasted overnight prior to weighing and euthanasia. Livers were excised from each mouse, aliquots were snap-frozen in liquid nitrogen, and stored at −80° C. Within 7 days, liver samples were thawed on ice, weighed, and analyzed for Coenzyme A content as described below. Efficacy was indicated by a statistically significant increase in the liver Coenzyme A levels in the Pank1^−/− mice as compared to the liver from untreated Pank1^−/− mice and by equivalence in comparison with Coenzyme A levels in untreated Pank1^+/+ mice.
CoA Measurements: Extraction of Fibroblasts and Liver and Derivatization of Coenzyme A Prior to High Pressure Liquid Chromatography (HPLC) […]
Coenzyme A Quantification by HPLC […]

| SMILES | CoA levels (fold over vehicle treated PANK2−/− cells) [1] [fold] | CoA (% KO) [2] [% KO] |
| --- | --- | --- |
| COC(=O)[C@H](C)NP(=O)(OCC(C)(C)[C@@H](O)C(=O)NCCC(=O)OCc1ccccc1)Oc1ccccc1 (stereo partly drawn) [Compound 22, Benzyl 3-((2R)-2-hydroxy-4-(((((S)-1-methoxy-1-oxopropan-2-yl)amino)(phenoxy)phosphoryl)oxy)-3,3-dimethylbutanamido)propanoate] | 1.1 | 400 |
| COC(=O)CCNC(=O)[C@H](O)C(C)(C)COP(=O)(N[C@@H](C)C(=O)OCc1ccccc1)Oc1ccccc1 (stereo partly drawn) [Compound 24, Benzyl (((R)-3-hydroxy-4-((3-methoxy-3-oxopropyl)amino)-2,2-dimethyl-4-oxobutoxy)(phenoxy)phosphoryl)-L-alaninate] | 1.7 |  |
| COC(=O)CCNC(=O)[C@H](O)C(C)(C)COP(=O)(N[C@@H](Cc1ccccc1)C(=O)OCc1ccccc1)Oc1ccccc1 (stereo partly drawn) [Compound 27, Benzyl (((R)-3-hydroxy-4-((3-methoxy-3-oxopropyl)amino)-2,2-dimethyl-4-oxobutoxy)(phenoxy)phosphoryl)-L-phenylalaninate] | 1.3 | 1837 |
